PubChem BioAssay (NCI)
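Cells were grown in 96-well plates and exposed to each compound for 48 hours at five concentrations; endpoints were interpolated linearly between bracketing concentrations, or set to the highest concentration if not reached. TGI denotes the concentration required for complete inhibition of growth.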

Key:
Experiment in all cases: DTP human tumour cell line panel, 48 h
[1] = test system: SK-MEL-28 melanoma
[2] = test system: OVCAR-5 ovarian
[3] = test system: SF-295 CNS
[4] = test system: LOX IMVI melanoma
[5] = test system: RPMI-8226 leukemia
[6] = test system: HOP-18 NSCLC
[7] = test system: NCI-H226 lung
[8] = test system: HCC-2998 colon
[9] = test system: HL-60(TB) leukemia
[10] = test system: OVCAR-3 ovarian
[11] = test system: EKVX NSCLC
[12] = test system: KM12 colon
[13] = test system: SK-OV-3 ovarian
[14] = test system: UO-31 renal
[15] = test system: NCI-H460 lung
[16] = test system: TK-10 renal
[17] = test system: DLD-1 colon
[18] = test system: SW-620 colon
[19] = test system: SK-MEL-5 melanoma
[20] = test system: UACC-257 melanoma
[21] = test system: ACHN renal
[22] = test system: M14 melanoma
[23] = test system: KM20L2 colon
[24] = test system: RXF 393 renal
[25] = test system: OVCAR-4 ovarian
[26] = test system: HCT-116 colon
[27] = test system: MALME-3M melanoma
[28] = test system: CCRF-CEM leukemia
[29] = test system: COLO 205 colon
[30] = test system: SNB-75 CNS
[31] = test system: NCI-H23 lung
[32] = test system: UACC-62 melanoma
[33] = test system: M19-MEL melanoma
[34] = test system: HOP-62 NSCLC
[35] = test system: SK-MEL-2 melanoma
[36] = test system: OVCAR-8 ovarian
[37] = test system: SF-268 CNS
[38] = test system: SN12C renal
[39] = test system: LXFL 529 NSCLC
[40] = test system: IGROV1 ovarian
[41] = test system: XF 498 CNS
[42] = test system: SNB-78 CNS
[43] = test system: SF-539 CNS
[44] = test system: 786-0 renal
[45] = test system: HT29 colon
[46] = test system: SNB-19 CNS
[47] = test system: A498 renal
[48] = test system: HOP-92 NSCLC
[49] = test system: DMS 114 small cell lung
[50] = test system: HCT-15 colon
[51] = test system: U251 CNS
[52] = test system: NCI-H522 lung
[53] = test system: A549 NSCLC
[54] = test system: DMS 273 small cell lung
[55] = test system: K-562 leukemia
[56] = test system: CAKI-1 renal
[57] = test system: MOLT-4 leukemia
[58] = test system: SR leukemia

Compound: CCCCCCCCCCCCCC(=S)N/C=C/OC
- TGI [1]: > 100 µM
- TGI [2]: > 100 µM
- TGI [3]: 85.4 µM
- TGI [4]: 46.8 µM
- TGI [5]: 51.5 µM
- TGI [6]: > 100 µM
- TGI [7]: > 100 µM
- TGI [8]: 45.9 µM
- TGI [9]: 36.8 µM
- TGI [10]: 56.1 µM
- TGI [11]: 81.7 µM
- TGI [12]: 81.9 µM
- TGI [13]: > 100 µM
- TGI [14]: 95.6 µM
- TGI [15]: > 100 µM
- TGI [16]: > 100 µM
- TGI [17]: > 100 µM
- TGI [18]: > 100 µM
- TGI [19]: 61.7 µM
- TGI [20]: 57 µM
- TGI [21]: 96.4 µM
- TGI [22]: > 100 µM
- TGI [23]: > 100 µM
- TGI [24]: 54.8 µM
- TGI [25]: > 100 µM
- TGI [26]: > 100 µM
- TGI [27]: > 100 µM
- TGI [28]: 56.2 µM
- TGI [29]: 71.4 µM
- TGI [30]: > 100 µM
- TGI [31]: 74 µM
- TGI [32]: 71.3 µM
- TGI [33]: 99.6 µM
- TGI [34]: > 100 µM
- TGI [35]: 73 µM
- TGI [36]: > 100 µM
- TGI [37]: > 100 µM
- TGI [38]: > 100 µM
- TGI [39]: > 100 µM
- TGI [40]: > 100 µM
- TGI [41]: 51.9 µM
- TGI [42]: > 100 µM
- TGI [43]: > 100 µM
- TGI [44]: > 100 µM
- TGI [45]: 50.1 µM
- TGI [46]: > 100 µM
- TGI [47]: 86.2 µM
- TGI [48]: 74.5 µM
- TGI [49]: 48.3 µM
- TGI [50]: 53.3 µM
- TGI [51]: 53.1 µM
- TGI [52]: 46.3 µM
- TGI [53]: > 100 µM

Compound: O=C1OC(CC(=O)c2ccc(Cl)cc2)C(Cl)=C1Cl (stereo not drawn)
- TGI [1]: > 100 µM
- TGI [2]: > 100 µM
- TGI [3]: > 100 µM
- TGI [5]: > 100 µM
- TGI [6]: > 100 µM
- TGI [7]: > 100 µM
- TGI [8]: > 100 µM
- TGI [9]: 76.9 µM
- TGI [54]: > 100 µM
- TGI [10]: > 100 µM
- TGI [11]: > 100 µM
- TGI [12]: > 100 µM
- TGI [13]: > 100 µM
- TGI [14]: > 100 µM
- TGI [15]: > 100 µM
- TGI [55]: > 100 µM
- TGI [16]: > 100 µM
- TGI [17]: > 100 µM
- TGI [18]: > 100 µM
- TGI [19]: > 100 µM
- TGI [20]: > 100 µM
- TGI [21]: > 100 µM
- TGI [22]: > 100 µM
- TGI [23]: > 100 µM
- TGI [25]: > 100 µM
- TGI [26]: > 100 µM
- TGI [27]: > 100 µM
- TGI [28]: > 100 µM
- TGI [29]: > 100 µM
- TGI [56]: > 100 µM
- TGI [30]: > 100 µM
- TGI [31]: > 100 µM
- TGI [32]: > 100 µM
- TGI [33]: > 100 µM
- TGI [34]: > 100 µM
- TGI [35]: > 100 µM
- TGI [36]: > 100 µM
- TGI [37]: > 100 µM
- TGI [38]: > 100 µM
- TGI [39]: > 100 µM
- TGI [40]: > 100 µM
- TGI [41]: > 100 µM
- TGI [57]: > 100 µM
- TGI [43]: > 100 µM
- TGI [44]: > 100 µM
- TGI [45]: > 100 µM
- TGI [46]: > 100 µM
- TGI [47]: > 100 µM
- TGI [48]: > 100 µM
- TGI [49]: > 100 µM
- TGI [58]: > 100 µM
- TGI [50]: > 100 µM
- TGI [51]: > 100 µM
- TGI [52]: > 100 µM
- TGI [53]: > 100 µM

Compound: COC(=O)CC(=O)OC
- TGI [2]: > 100 µM
- TGI [3]: > 100 µM
- TGI [4]: > 100 µM
- TGI [5]: > 100 µM
- TGI [6]: > 100 µM
- TGI [8]: > 100 µM
- TGI [9]: > 100 µM
- TGI [54]: > 100 µM
- TGI [10]: > 100 µM
- TGI [11]: > 100 µM
- TGI [12]: > 100 µM
- TGI [13]: > 100 µM
- TGI [14]: > 100 µM
- TGI [15]: > 100 µM
- TGI [55]: > 100 µM
- TGI [16]: > 100 µM
- TGI [17]: > 100 µM
- TGI [18]: > 100 µM
- TGI [19]: > 100 µM
- TGI [20]: > 100 µM
- TGI [21]: > 100 µM
- TGI [22]: > 100 µM
- TGI [23]: > 100 µM
- TGI [24]: > 100 µM
- TGI [25]: > 100 µM
- TGI [26]: > 100 µM
- TGI [27]: > 100 µM
- TGI [28]: > 100 µM
- TGI [29]: > 100 µM
- TGI [56]: > 100 µM
- TGI [30]: > 100 µM
- TGI [31]: > 100 µM
- TGI [32]: > 100 µM
- TGI [33]: > 100 µM
- TGI [34]: > 100 µM
- TGI [35]: > 100 µM
- TGI [36]: > 100 µM
- TGI [37]: > 100 µM
- TGI [38]: > 100 µM
- TGI [39]: > 100 µM
- TGI [40]: > 100 µM
- TGI [41]: > 100 µM
- TGI [42]: > 100 µM
- TGI [57]: > 100 µM
- TGI [43]: > 100 µM
- TGI [44]: > 100 µM
- TGI [45]: > 100 µM
- TGI [46]: > 100 µM
- TGI [47]: > 100 µM
- TGI [48]: > 100 µM
- TGI [49]: > 100 µM
- TGI [50]: > 100 µM
- TGI [51]: > 100 µM
- TGI [53]: > 100 µM

Compound: [O-][n+]1c2cc(CBr)c(CBr)cc2[n+]([O-])c2c(O)cccc21
- TGI [1]: 3.67 µM
- TGI [2]: 3.74 µM
- TGI [3]: 3.27 µM
- TGI [4]: 2.64 µM
- TGI [6]: 10.5 µM
- TGI [7]: 14.2 µM
- TGI [9]: 1.14 µM
- TGI [54]: 3.22 µM
- TGI [10]: 5.24 µM
- TGI [11]: 11.6 µM
- TGI [12]: 3.66 µM
- TGI [13]: 9.15 µM
- TGI [14]: 4.56 µM
- TGI [15]: 4.21 µM
- TGI [16]: 10.9 µM
- TGI [17]: 2.71 µM
- TGI [18]: 2.9 µM
- TGI [19]: 4.39 µM
- TGI [20]: 6.37 µM
- TGI [21]: 3.51 µM
- TGI [22]: 3.29 µM
- TGI [23]: 9.53 µM
- TGI [24]: 3.69 µM
- TGI [25]: 5.25 µM
- TGI [26]: 2.87 µM
- TGI [27]: 3.47 µM
- TGI [28]: 0.714 µM
- TGI [29]: 3.47 µM
- TGI [56]: 6.7 µM
- TGI [30]: 4.48 µM
- TGI [31]: 6.68 µM
- TGI [32]: 3.39 µM
- TGI [33]: 3.32 µM
- TGI [34]: 34.7 µM
- TGI [35]: 4.83 µM
- TGI [36]: 3.3 µM
- TGI [37]: 5.91 µM
- TGI [38]: 3.05 µM
- TGI [39]: 2.89 µM
- TGI [40]: 8.59 µM
- TGI [41]: 4.67 µM
- TGI [57]: 1.25 µM
- TGI [44]: 2.93 µM
- TGI [45]: 3.88 µM
- TGI [46]: 11 µM
- TGI [47]: 25.7 µM
- TGI [48]: 2.92 µM
- TGI [49]: 3.35 µM
- TGI [58]: 0.662 µM
- TGI [50]: 3.18 µM
- TGI [51]: 7.07 µM
- TGI [52]: 1.16 µM
- TGI [53]: 9.03 µM

Compound: Cc1ccc(C2=C(c3ccccc3)C(=O)C(c3ccccc3)=C2c2ccc(C)cc2)cc1
- TGI [1]: 48 µM
- TGI [2]: > 100 µM
- TGI [3]: > 100 µM
- TGI [5]: > 100 µM
- TGI [6]: > 100 µM
- TGI [7]: > 100 µM
- TGI [8]: > 100 µM
- TGI [11]: > 100 µM
- TGI [12]: > 100 µM
- TGI [13]: > 100 µM
- TGI [14]: > 100 µM
- TGI [15]: > 100 µM
- TGI [55]: > 100 µM
- TGI [16]: > 100 µM
- TGI [17]: > 100 µM
- TGI [18]: 95.7 µM
- TGI [19]: > 100 µM
- TGI [20]: > 100 µM
- TGI [21]: > 100 µM
- TGI [22]: > 100 µM
- TGI [23]: > 100 µM
- TGI [24]: > 100 µM
- TGI [26]: > 100 µM
- TGI [27]: > 100 µM
- TGI [28]: 70.5 µM
- TGI [30]: > 100 µM
- TGI [31]: 85.1 µM
- TGI [33]: > 100 µM
- TGI [34]: > 100 µM
- TGI [35]: > 100 µM
- TGI [36]: > 100 µM
- TGI [37]: > 100 µM
- TGI [38]: > 100 µM
- TGI [39]: > 100 µM
- TGI [40]: > 100 µM
- TGI [41]: > 100 µM
- TGI [42]: > 100 µM
- TGI [57]: > 100 µM
- TGI [43]: 46.9 µM
- TGI [44]: > 100 µM
- TGI [45]: > 100 µM
- TGI [46]: > 100 µM
- TGI [47]: > 100 µM
- TGI [58]: > 100 µM
- TGI [50]: > 100 µM
- TGI [51]: > 100 µM
- TGI [52]: > 100 µM
- TGI [53]: > 100 µM
